From patent US12673038B2, “Antimycotic methoxyflavone and fluconazole combination for inhibiting cryptococcus” (Karl-Franzens-Universität Graz, priority 2019, dated 2026)

Key:
S. cerevisiae BY4741 = experiment: ROS accumulation by DHE to ethidium conversion (flow cytometry); assay type: cell-based, Saccharomyces cerevisiae; details: day 3 after treatment
Experimental: S. cerevisiae BY4741 cells were grown in SMD minimal media to mid-log phase and then treated with the indicated concentrations of 5-MF; control cells were treated with the same amount of solvent (DMSO). (A) Clonogenicity was assayed by plating 500 cells on YPD agar plates and colony forming units (CFUs) were counted to calculate survival rates. (B) Yeast cells were analyzed for cell death markers via AnnV/PI co-staining using flow cytometry. (C) The accumulation of reactive oxygen species was monitored by dihydrotethidium (DHE) to ethidium (Eth) conversion using flow cytometry. Assays in (A-C) were performed on day 3 after treatment. […] Data was analyzed by one-way ANOVA and corrected for multiple comparison using a Bonferroni post-hoc test. ns: not significant, * p<0.05, *** p<0.001, **** p<0.0001. […] Accumulation of ROS was determined by dihydroethidium (DHE) staining as described for PI staining, using a 100 ng/mL DHE solution (Sigma, Germany) in PBS. After staining cells were sedimented again and resuspended in PBS to avoid dye deposition. For each sample, at least 30,000 cells were analyzed using flow cytometry (LSRII Fortessa, BD; Ex: 488 nm, Em: 585 nm).

[1] = test system: C. albicans SC5314 biofilms; experiment: Biofilm inhibition concentration (BIC), CTB staining; assay type: cell-based; details: Candida albicans, C. albicans SC5314 biofilm formation, mean±SEM, read-out: BIC-50
C. glabrata biofilms = experiment: Biofilm inhibition by plating (CFU of biofilm cells); assay type: cell-based, Candida glabrata; details: different concentrations of 5-MF
C. albicans SC5314 = experiment: C. elegans infection model for C. albicans infection; assay type: in vivo, Caenorhabditis elegans; details: C. elegans Δglp-4 Δsek-1 infected with C. albicans
Experimental: Survival curves of non-infected (ui ctrl.) and infected (i ctrl.) nematodes treated or not with 5-MF are shown in (A), and the survival of living nematodes on day 5 is shown in (B). Synchronized C. elegans Δglp-4 Δsek-1 larvae were infected at the L4 stage as previously described (Delattin N, et al., Antimicrob Chemother. 69(2014): 1035-1044). 35-50 infected worms were then suspended in 750 μL growth medium (M9 buffer supplemented with 10 mg/L cholesterol, 100 mg/L kanamycin and 75 mg/L ampicillin) in separate wells of a 24-well plate with at least 3 wells for each condition. Worms were treated with 200 μM 5-MF or the corresponding volume of solvent (i ctrl) immediately after infection (single application). Worm survival was monitored daily over the period of five days. Additionally, the survival of non-infected worms (ui ctrl) was monitored as a control. […] In (B), worm survival is expressed as the percentage of viability at day 5 compared to day 0, with data analyzed using one-way ANOVA and corrected for multiple comparison using a Bonferroni post-hoc test. ** p<0.01, **** p<0.0001. […]
For efficacy testing of compounds, 750 μL of the worm suspension were transferred into each well of a 24-well plate and substances were added at indicated concentrations (1% DMSO). Nematodes were immediately counted (t0) and survival was monitored over five days post infection by counting living worms. […]

Candida albicans = details: according to CN 105 669 625 A; cited from earlier work

## COc1cccc2oc(-c3ccccc3)cc(=O)c12 [5-MF, 5-methoxyflavone]
S. cerevisiae BY4741
  accumulation of reactive oxygen species (DHE to Eth conversion): causes accumulation of reactive oxygen species
[1]
  IC50: 216 ± 26.6 µM
C. glabrata biofilms
  number of biofilm cells (CFUs on YPD agar): decreased in a concentration-dependent manner
C. albicans SC5314; 200 μM 5-MF single application, infected control 20.6%
  worms alive at day 5 post infection: 42.9%
C. albicans SC5314; compared to infected control
  nematode survival over 5 days post infection: prolonged protection
Candida albicans
  synergistic antifungal effect with fluconazole: does not show such synergistic effect
